By viability is commonly meant the share of living cells, or the viability signal relative to a control.

Results on 19 molecules are retold here after patent publication US20110237633A1, “SMALL MOLECULE MODULATORS OF HEPATOCYTE GROWTH FACTOR (SCATTER FACTOR) ACTIVITY” (priority 2008, published 2011).

The test system of one data set is Endothelial cells (HUVECs). The data set is described as follows: Assessment of HGF/SF-like activity: HUVEC proliferation (3H thymidine incorporation / Cell titer Glo). The class given is cell-based, human. To be noted: test compounds 10 μM (or 0.01 to 25 micromolar), 24 hr; growth compared to 50 ng/mL HGF control. As for the experimental part: 1. Assessment of HGF/SF-like activity: The following assay is performed to assess the HGF/SF-like activity of the compounds of the invention. Endothelial cells (HUVECs) are seeded in 48 well plates at a density of 10,000 to 20,000 cells per well in the normal growth medium (EGM-2-Clonetics) containing 2% fetal bovine serum, FGF, VEGF, IGF, ascorbic acid, EGF, GA, heparin and hydrocortisone. The cells are grown normally in the growth medium for 24 hr at 37° C. and 5% CO2. The cells are then rinsed with RPMI-1% BSA and are starved for 1-2 hrs. The stock solutions of the compounds of the invention are made at a concentration of 10 mg/ml in DMSO and are diluted in RPMI-1% BSA at a final concentrations of 0.01 micromolar to 25 micromolar. The cells are then washed and are treated with the compounds and are incubated for another 24 hr at 37° C. Then ^3H thymidine (0.5 microgram/ml in RPMI-BSA) is added to the cells and they are incubated at 37° C. for 4 to 5 hours. The unincorporated thymidine is removed by washing the cells four times with 1×PBS. Then the cells are lysed with 0.5M NaOH for 30 min and the radioactivity is counted in the beta counter. A similar proliferation assay using monkey bronchial epithelial cells (4 MBR-5) is also employed.
In another assay format, HUVEC cells were grown in EGM-2 medium (Lonza) with 5% FBS to 80% confluence at 37° C. and in 5% CO2. Cells were plated in a white opaque flat bottom 96 well plate at a density of 10000 cells per well and in a volume of 100 μL, and incubated overnight and starved by washing twice in serum-free EGM-2 media. After 2 hours, cells were treated with 100 μL EGM-2 medium containing 10 μM test compounds and incubated for an additional 24 hours at 37° C. (All compounds were in DMSO and the final concentration of DMSO in the assay was 0.1%). In all experiments, serum (5%) and HGF (50 ng/mL final) were run as positive controls and DMSO vehicle was run as a negative control. 10 μL Cell titer Glo reagent (Promega) was added to each well and plates were mixed by gentle tapping. After 10 minutes at room temperature, plates were read on a Packard Top Count Luminescence plate reader. Proliferation was expressed as a percentage of growth compared to 50 ng/mL HGF control, with the DMSO control representing 0% growth and the HGF control representing 100% growth.
In general terms: Uptake of a labelled nucleoside into DNA is a usual measure of proliferation.
Take `CCn1c(C)nc2cc(-c3ccccc3)ccc21` [1-ethyl-2-methyl-5-phenyl-1H-benzo[d]imidazole]: the “HGF/SF-like activity (HUVEC proliferation)” value (shortened to “HGF/SF-like activity”) is “active”.
Regarding `CC(C)N1CC(c2nc(-c3ccc4ccccc4c3)c[nH]2)CC1=O` (centres unmarked) [1-isopropyl-4-(4-(naphthalen-2-yl)-1H-imidazol-2-yl)pyrrolidin-2-one], the “HGF/SF-like activity” value is reported as “active”.
As to `C(=Cc1cccs1)c1ccc[nH]1` [2-(2-(thiophen-2-yl)vinyl)-1H-pyrrole], the “HGF/SF-like activity” value is listed as “active”.
For the molecule `Nc1ccc(C=Cc2nc3cc(N)ccc3[nH]2)cc1` [2-(4-aminostyryl)-1H-benzo[d]imidazol-5-amine], the “HGF/SF-like activity” value was “active”.
On to `c1ccc2cc(-c3ncc[nH]3)ccc2c1` [2-(naphthalen-2-yl)-1H-imidazole], for which the “HGF/SF-like activity” value is recorded as “active”.
For `C(=Cc1ncc[nH]1)c1ccccc1` [2-styryl-1H-imidazole], the “HGF/SF-like activity” value is given as “active”.
Same read-out and setting: the entry for `CSc1nnc(C=Cc2cccs2)[nH]1` [3-(methylthio)-5-(2-(thiophen-2-yl)vinyl)-4H-1,2,4-triazole] is “active”; for `c1ccc2cc(-c3cnc[nH]3)ccc2c1` [5-(naphthalen-2-yl)-1H-imidazole] it is “active”.
With `c1ccc2cc(-c3nnn[nH]3)ccc2c1` [5-(naphthalen-2-yl)-1H-tetrazole], the “HGF/SF-like activity” value is “active”.
As to `C(=Cc1cnc[nH]1)c1ccccc1` [5-styryl-1H-imidazole], the “HGF/SF-like activity” value is reported as “active”.
The same measure, in the same setting: the entry for `C(=Cc1nnn[nH]1)c1ccccc1` [5-styryl-1H-tetrazole] is “active”; for `Nc1nnc(C=Cc2ccccc2)[nH]1` [5-styryl-4H-1,2,4-triazol-3-amine] it is “active”.
For `c1coc(-c2ccc3cn[nH]c3c2)c1` [6-(furan-2-yl)-1H-indazole], the “HGF/SF-like activity” value is given as “active”.
Consider `c1cc(-c2ccc3cn[nH]c3c2)co1` [6-(furan-3-yl)-1H-indazole], for which the “HGF/SF-like activity” value is given as “active”.
Take `c1csc(-c2ccc3cn[nH]c3c2)c1` [6-(thiophen-2-yl)-1H-indazole]: the “HGF/SF-like activity” value was “active”.
Still for that read-out and setting: the entry for `c1cc(-c2ccc3cn[nH]c3c2)cs1` [6-(thiophen-3-yl)-1H-indazole] is “active”; for `CS(=O)(=O)Nc1ccc(-c2ccc3nc[nH]c3c2)cc1` [N-(4-(1H-benzo[d]imidazol-6-yl)phenyl)methanesulfonamide] it is “active”.

A further data set has as its system LX2 cells (collagen I mRNA). Description: Antifibrotic activity: collagen I mRNA by real time PCR in LX2 hepatic stellate cells. The class given is cell-based, human. To be noted: serum starved LX2 cells, 24 hours, HGF 100 ng/ml. As for the experimental part: 2. Antifibrotic Activity of HGF and compounds of the invention in vitro and in vivo. The antifibrotic effects of HGF and compounds of the invention in the immortalized human hepatic stellate cell line LX2 are determined. Serum starved LX2 cells are treated for 24 hours with HGF at 100 ng/ml and compounds of the invention at doses ranging from 12 to 24 ug/ml. RNA is then isolated and real time PCR is performed to evaluate changes in collagen I mRNA. Results typically indicate a 90% and 70% decrease in collagen I mRNA expression in cells treated with instant compounds and HGF, respectively. Additional experiments to determine the effects of HGF and compounds on TGFb-1, bPDGF-R and MMP-1 mRNA are also performed to more completely characterize activities of these compounds which can contribute to their antifibrotic effects.
“HGF: Scatter factor / hepatocyte growth factor, pleiotropic growth factor used as positive control”: the “decrease in collagen I mRNA expression” value was determined as 70%.

A further data set concerns MDCK cells.
Assay: not given
Details: not given
Consider “HGF: Scatter factor / hepatocyte growth factor, pleiotropic growth factor used as positive control”, for which the “cell viability after pretreatment, then adriamycin” value was 94%.

System in another data set: not listed separately
Description: MTT cell viability assay, protection from adriamycin-induced apoptosis. The note with it: dog, MDCK cells. On the technique in general: Tetrazolium assays rely on reduction of a dye to a coloured formazan, in cell work by metabolically active cells.
Description: Using the MTT cell viability assay the ability of compounds of the invention to protect cells from adriamycin-induced apoptosis is tested.
As to `COc1cccc2c1C(=O)c1c(O)c3c(c(O)c1C2=O)C[C@@](O)(C(=O)CO)C[C@@H]3O[C@H]1C[C@H](N)[C@H](O)[C@H](C)O1` [Adriamycin, adriamycin], the viability was found to be 56%.
